Series [1] deals with locally advanced BCC. The conditions noted are these: cited from earlier work.
In series [2] the test system is PA0165 pancreatic xenograft. Description: Pancreatic xenograft PA0165, Compound A and Romidepsin. The format is in vivo, NSG mice. As to the method: 3/4 is 3 days on and 4 days off; Q4D is once every 4 days; Q7D is once every 7 days; —— Control; - - - - Compound A 25 mg/kg, 3/4; - —— - —— Romidepsin 1.5 mg/kg Q4D×3; —— —— Compound A 25 mg/kg. 3/4 combined with Romidepsin 1.5 mg/kg Q7D; - - - Compound A 25 mg/kg, 3/4 combined with Romidepsin 0.75 mg/kg Q7D. Tumor volumes were plotted as mean±standard error of the mean (SEM).
3/4 is 3 days on and 4 days off; Q4D is once every 4 days. —— Control; - - - - Compound A at 25 mg/kg, 3/4; - —— - —— Romidepsin 1.5 mg/kg Q4D×3; —— —— Compound A 25 mg/kg, 3/4 combined with Romidepsin 1.5 mg/kg Q7D; - - - Compound A 25 mg/kg, 3/4 combined with Romidepsin 0.75 mg/kg Q7D.
Cohorts of 4-6 wk-old NSG mice bearing PA0165 were treated with Romidepsin at 1.5 mg/kg intravenous (IV)×3 Q4D; Compound A 25 mg/kg orally QD 3 days on then 4 days off; or with a combination of Compound A 25 mg/kg orally QD 3 days on then 4 days off and Romidepsin at 1.5 or 0.75 mg/kg IV Q7D. The treatment lasted 21 days.

The subject of series [3] is basal cell carcinoma. The conditions noted are these: BCC; cited from earlier work.
For series [4] the following is noted: non-leukemic hematologic malignancies; cited from earlier work.

The term TGI denotes how far tumour growth fell short of that in controls.

In the case of `Cc1c(C(=O)Nc2ccc(N3C[C@@H](C)O[C@@H](C)C3)nc2)cccc1-c1ccc(OC(F)(F)F)cc1` [sonidegib], the “investigator-assessed responses lasting at least six months” value in series [1] is on record as 60%.

In the case of `C/C=C1\NC(=O)[C@H]2CSSCC/C=C/[C@H](CC(=O)N[C@H](C(C)C)C(=O)N2)OC(=O)[C@H](C(C)C)NC1=O` [Romidepsin, (1S,4S,7Z,10S,16E,21R)-7-ethylidene4,21-diisopropyl-2-oxa-12,13-dithia-5,8,20,23-tetrazabicyclo[8.7.6]tricos-16-ene-3,6,9,19,22pentone, reference compound], the TGI in series [2] (Romidepsin 1.5 mg/kg IV ×3 Q4D alone, 21 days) is on record as 45%. For the same compound, the survival rate entry in series [2] (day 30, Romidepsin only group) was “about 10%”.

As to `CS(=O)(=O)c1ccc(C(=O)Nc2ccc(Cl)c(-c3ccccn3)c2)c(Cl)c1` [vismodegib], the “median duration of response” value in series [3] is reported as 7.6 months.

Take `Cc1sc2c(c1C)C(c1ccc(Cl)cc1)=N[C@@H](CC(=O)Nc1ccc(O)cc1)c1nnc(C)n1-2` [OTX015]: the “patients with Grade 3 hyperglycemia” value in series [4] is 1 patient.

(Values after patent US11464771B2, “Bromodomain and extra-terminal protein inhibitor combination therapy” (CELGENE QUANTICEL RESEARCH, INC., priority 2016, dated 2022).)
